Assay results published in patent US9944602B2, “Piperidinone herbicides” (E. I. DU PONT DE NEMOURS AND COMPANY, priority 2014, dated 2018).

What was measured:
Assay type in all cases: in vivo
kochia (Kochia scoparia) [1] = assay: Test A postemergence kochia; settings: Bassia scoparia, post-emergence, 240 h, 0 to 100 scale, 0 is no effect, 100 is complete control, read-out: Plant response rating, Kochia; for pest or weed control at 125 g/ha: 125 g ai/ha; for pest or weed control at 500 g/ha: 500 g ai/ha
Procedure, shortened: (§1)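 Seeds sown in loam–sand blend received a directed preemergence soil spray; postemergence plants (2–10 cm, one- to two-leaf stage) were sprayed in the same soil. Chemicals were formulated in non-phytotoxic solvent with surfactant. After ~10 d in greenhouse, injury was rated visually against untreated controls, 0 (no effect) to 100 (complete control).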

[2] = test system: ryegrass, Italian (Italian ryegrass, Lolium multiflorum); assay: Test A postemergence ryegrass, Italian; settings: Lolium multiflorum, post-emergence, 240 h, 0 to 100 scale, 0 is no effect, 100 is complete control, read-out: Plant response rating, Ryegrass, Italian; for pest or weed control at 125 g/ha: 125 g ai/ha; for pest or weed control at 500 g/ha: 500 g ai/ha
Procedure, shortened: as §1

[3] = test system: ducksalad (Heteranthera limosa); assay: Test B flooded paddy test ducksalad; settings: Heteranthera limosa, Table B, Flood, 250 g ai/ha, scale 0 to 100, read-out: Plant response rating
Procedure, shortened: (§2)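 2-leaf plants; flood 3 cm over soil; cpd into paddy water; water depth kept; greenhouse 13–15 d; visual rating vs controls.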

[4] = test system: foxtail, giant (giant foxtail, Setaria faberii); assay: Test A postemergence foxtail, giant; settings: Setaria faberi, post-emergence, 240 h, 0 to 100 scale, 0 is no effect, 100 is complete control, read-out: Plant response rating, Foxtail, Giant; for pest or weed control at 125 g/ha: 125 g ai/ha; for pest or weed control at 500 g/ha: 500 g ai/ha
Procedure, shortened: as §1

[5] = test system: blackgrass (Alopecurus myosuroides); assay: Test A postemergence blackgrass; settings: Alopecurus myosuroides, post-emergence, 240 h, 0 to 100 scale, 0 is no effect, 100 is complete control, read-out: Plant response rating, Blackgrass; for pest or weed control at 125 g/ha: 125 g ai/ha; for pest or weed control at 500 g/ha: 500 g ai/ha
Procedure, shortened: as §1

[6] = test system: foxtail, giant (giant foxtail, Setaria faberii); assay: Test A preemergence foxtail, giant; settings: Setaria faberi, pre-emergence, 240 h, 0 to 100 scale, 0 no effect, 100 complete control, read-out: Foxtail, Giant plant response rating; for pest or weed control at 125 g/ha: 125 g ai/ha; for pest or weed control at 500 g/ha: 500 g ai/ha
Procedure, shortened: as §1

[7] = test system: pigweed (Amaranthus retroflexus); assay: Test A preemergence pigweed; settings: Amaranthus retroflexus, pre-emergence, 240 h, 0 to 100 scale, 0 no effect, 100 complete control, read-out: Pigweed plant response rating; for pest or weed control at 125 g/ha: 125 g ai/ha; for pest or weed control at 500 g/ha: 500 g ai/ha
Procedure, shortened: as §1

[8] = test system: ragweed (common ragweed, Ambrosia elatior); assay: Test A preemergence ragweed; settings: Ambrosia artemisiifolia, pre-emergence, 240 h, 0 to 100 scale, 0 no effect, 100 complete control, read-out: Ragweed plant response rating; for pest or weed control at 125 g/ha: 125 g ai/ha; for pest or weed control at 500 g/ha: 500 g ai/ha
Procedure, shortened: as §1

[9] = test system: barnyardgrass (Echinochloa crus-galli); assay: Test A postemergence barnyardgrass; settings: Echinochloa crus-galli, post-emergence, 240 h, 0 to 100 scale, 0 is no effect, 100 is complete control, read-out: Plant response rating, Barnyardgrass; for pest or weed control at 125 g/ha: 125 g ai/ha; for pest or weed control at 500 g/ha: 500 g ai/ha
Procedure, shortened: as §1

[10] = test system: ryegrass, Italian (Italian ryegrass, Lolium multiflorum); assay: Test A preemergence ryegrass, Italian; settings: Lolium multiflorum, pre-emergence, 240 h, 0 to 100 scale, 0 no effect, 100 complete control, read-out: Ryegrass, Italian plant response rating; for pest or weed control at 125 g/ha: 125 g ai/ha; for pest or weed control at 500 g/ha: 500 g ai/ha
Procedure, shortened: as §1

[11] = test system: barnyardgrass (Echinochloa crus-galli); assay: Test B flooded paddy test barnyardgrass; settings: Echinochloa crus-galli, Table B, Flood, 250 g ai/ha, scale 0 to 100, read-out: Plant response rating
Procedure, shortened: as §2

[12] = test system: sedge, umbrella (small-flower umbrella sedge, Cyperus difformis); assay: Test B flooded paddy test sedge, umbrella; settings: Cyperus difformis, Table B, Flood, 250 g ai/ha, scale 0 to 100, read-out: Plant response rating
Procedure, shortened: as §2

[13] = test system: barnyardgrass (Echinochloa crus-galli); assay: Test A preemergence barnyardgrass; settings: Echinochloa crus-galli, pre-emergence, 240 h, 0 to 100 scale, 0 no effect, 100 complete control, read-out: Barnyardgrass plant response rating; for pest or weed control at 125 g/ha: 125 g ai/ha; for pest or weed control at 500 g/ha: 500 g ai/ha
Procedure, shortened: as §1

corn (Zea mays) = assay: Test A postemergence corn; settings: Zea mays, post-emergence, 240 h, 0 to 100 scale, 0 is no effect, 100 is complete control; for Corn plant response rating (crop injury, 0 = no effect, 100 = complete kill) at 125 g/ha: 125 g ai/ha; for Corn plant response rating (crop injury, 0 = no effect, 100 = complete kill) at 500 g/ha: 500 g ai/ha
Procedure, shortened: as §1

[14] = test system: wheat (Triticum aestivum); assay: Test A postemergence wheat; settings: Triticum aestivum, post-emergence, 240 h, 0 to 100 scale, 0 is no effect, 100 is complete control, read-out: Plant response rating, Wheat; for plant injury at 125 g/ha: 125 g ai/ha; for plant injury at 500 g/ha: 500 g ai/ha
Procedure, shortened: as §1

rice (Oryza sativa) = assay: Test B flooded paddy test rice; settings: Oryza sativa, Table B, Flood, 250 g ai/ha, scale 0 to 100, read-out: Plant response rating
Procedure, shortened: as §2

[15] = test system: pigweed (Amaranthus retroflexus); assay: Test A postemergence pigweed; settings: Amaranthus retroflexus, post-emergence, 240 h, 0 to 100 scale, 0 is no effect, 100 is complete control, read-out: Plant response rating, Pigweed; for pest or weed control at 125 g/ha: 125 g ai/ha; for pest or weed control at 500 g/ha: 500 g ai/ha
Procedure, shortened: as §1

kochia (Kochia scoparia) [16] = assay: Test A preemergence kochia; settings: Bassia scoparia, pre-emergence, 240 h, 0 to 100 scale, 0 no effect, 100 complete control, read-out: Kochia plant response rating; for pest or weed control at 125 g/ha: 125 g ai/ha; for pest or weed control at 500 g/ha: 500 g ai/ha
Procedure, shortened: as §1

[17] = test system: galium (catchweed bedstraw, Galium aparine); assay: Test A postemergence galium; settings: Galium, post-emergence, 240 h, 0 to 100 scale, 0 is no effect, 100 is complete control, read-out: Plant response rating, Galium; for pest or weed control at 125 g/ha: 125 g ai/ha; for pest or weed control at 500 g/ha: 500 g ai/ha
Procedure, shortened: as §1

[18] = test system: ragweed (common ragweed, Ambrosia elatior); assay: Test A postemergence ragweed; settings: Ambrosia artemisiifolia, post-emergence, 240 h, 0 to 100 scale, 0 is no effect, 100 is complete control, read-out: Plant response rating, Ragweed; for pest or weed control at 125 g/ha: 125 g ai/ha; for pest or weed control at 500 g/ha: 500 g ai/ha
Procedure, shortened: as §1

| SMILES | pest or weed control at 125 g/ha (kochia (Kochia scoparia) [1]) [%] | pest or weed control at 500 g/ha (kochia (Kochia scoparia) [1]) [%] | pest or weed control at 125 g/ha [2] [%] | pest or weed control at 500 g/ha [2] [%] | pest or weed control at 250 g/ha [3] [%] | pest or weed control at 125 g/ha [4] [%] | pest or weed control at 500 g/ha [4] [%] | pest or weed control at 125 g/ha [5] [%] | pest or weed control at 500 g/ha [5] [%] | pest or weed control at 125 g/ha [6] [%] | pest or weed control at 500 g/ha [6] [%] | pest or weed control at 125 g/ha [7] [%] | pest or weed control at 500 g/ha [7] [%] | pest or weed control at 125 g/ha [8] [%] | pest or weed control at 500 g/ha [8] [%] | pest or weed control at 125 g/ha [9] [%] | pest or weed control at 500 g/ha [9] [%] | pest or weed control at 125 g/ha [10] [%] | pest or weed control at 500 g/ha [10] [%] | pest or weed control at 250 g/ha [11] [%] | further results |
| --- | --- | --- | --- | --- | --- | --- | --- | --- | --- | --- | --- | --- | --- | --- | --- | --- | --- | --- | --- | --- | --- |
| O=C1NCC[C@H](c2cccc(C(F)(F)F)c2)[C@H]1C(=O)Nc1cccc(Cl)c1F [Compound 25, (3R,4S)—N-(3-chloro-2-fluorophenyl)-2-oxo-4-[3-(trifluoromethyl)phenyl]-3-piperidinecarboxamide] | 0 | 0 | 30 | 40 | 45 | 80 | 80 | 60 | 80 | 90 | 90 | 0 | 0 | 0 | 0 | 80 | 80 | 0 | 50 | 60 | pest or weed control at 250 g/ha [12]: 0%; pest or weed control at 125 g/ha [13]: 90%; pest or weed control at 500 g/ha [13]: 90%; Corn plant response rating (crop injury, 0 = no effect, 100 = complete kill) at 125 g/ha (corn (Zea mays)): 20%; Corn plant response rating (crop injury, 0 = no effect, 100 = complete kill) at 500 g/ha (corn (Zea mays)): 70%; plant injury at 125 g/ha [14]: 40%; plant injury at 500 g/ha [14]: 60%; plant injury at 250 g/ha (rice (Oryza sativa)): 0%; pest or weed control at 125 g/ha [15]: 0%; pest or weed control at 500 g/ha [15]: 0%; pest or weed control at 125 g/ha (kochia (Kochia scoparia) [16]): 0%; pest or weed control at 500 g/ha (kochia (Kochia scoparia) [16]): 0%; pest or weed control at 125 g/ha [17]: 30%; pest or weed control at 500 g/ha [17]: 30%; pest or weed control at 125 g/ha [18]: 0%; pest or weed control at 500 g/ha [18]: 0% |
| O=C1NCC[C@H](c2ccc(F)cc2)[C@H]1C(=O)Nc1ccccc1C(F)(F)F [Compound 57, (3R,4S)-4-(4-fluorophenyl)-2-oxo-N-[2-(trifluoromethyl)phenyl]-3-piperidinecarboxamide] | 0 | 0 | 0 | 0 | 40 | 0 | 60 | 0 | 0 | 60 | 90 | 0 | 0 | 0 | 0 | 0 | 70 | 0 | 0 | 0 | pest or weed control at 250 g/ha [12]: 0%; pest or weed control at 125 g/ha [13]: 30%; pest or weed control at 500 g/ha [13]: 70%; Corn plant response rating (crop injury, 0 = no effect, 100 = complete kill) at 125 g/ha (corn (Zea mays)): 0%; Corn plant response rating (crop injury, 0 = no effect, 100 = complete kill) at 500 g/ha (corn (Zea mays)): 0%; plant injury at 125 g/ha [14]: 0%; plant injury at 500 g/ha [14]: 0%; plant injury at 250 g/ha (rice (Oryza sativa)): 0%; pest or weed control at 125 g/ha [15]: 0%; pest or weed control at 500 g/ha [15]: 0%; pest or weed control at 125 g/ha (kochia (Kochia scoparia) [16]): 0%; pest or weed control at 500 g/ha (kochia (Kochia scoparia) [16]): 0%; pest or weed control at 125 g/ha [17]: 0%; pest or weed control at 500 g/ha [17]: 0%; pest or weed control at 125 g/ha [18]: 0%; pest or weed control at 500 g/ha [18]: 0% |
